Laboratory results from patent publication US20210177879A1, “VITAMIN D RECEPTOR AGONIST” (Guanghzou University of Chinese Medicine, priority 2018, published 2021).

Tests used:
Assay type in all cases: in vivo, Balb/c mice
[1] = tested on: AOM/DSS colon cancer model; experiment: AOM/DSS colon cancer model, Experiment 1 (body weight, anal prolapse, organ coefficient, colon and tumor indexes)
Protocol: (§1) Experimental method: 90 Balb/c mice of 6-8 weeks were purchased from the Experimental Animal Center in Guangzhou University of Chinese Medicine, weighed about 18-22 g, and subjected to adaptive feeding for 10 days. Modeling was divided into three stages. In the first stage, except for the normal group of animals being given saline injection, each of the other animals were intraperitoneally injected with a carcinogen AOM (10 mg/kg), and given free access to 2% DSS water from the next day for 7 days, and then given access to replaced regular drinking water for 14 days. In the second stage, the animals were given free access to 2% DSS water for 10 days, and then given access to replaced regular drinking water for 14 days. In the third stage, the animals were given free access to 2% DSS water for 10 days, and then given access to replaced regular drinking water for 11 days. The normal group was given access to regular drinking water throughout the experiment. The diet, water drinking and body weights of the animals were recorded daily and DAI scores were made, and the animals were killed and harvested at the 10th week. In this experiment, the animals were divided into groups and administrated on the first day of a modeling period of the second stage, and the total number of groups was set to 5 groups. The first group was a blank control group (Normal), in which a total of 12 animals were given access to drinking water by gavage; the second group was a model group (AOM/DSS), in which a total of 22 animals were given access to drinking water by gavage; the third group was a positive drug control group (5-ASA+AOM/DSS), in which a total of 22 animals were given access to 100 mg/kg of mesalazine (5-ASA) by gavage; and the fourth and fifth groups were monotropein-intervening groups (Mo+AOM/DSS), which were a high dose of 8 mg/kg and a low dose of 2 mg/kg, respectively, with 17 animals in each group. Dosing was conducted daily until dissection.
(1) The calculation formula of a DAI score: DAI value=(score of weight loss+score of stool trait+score of blood in stool)/3.
The animals were anesthetized and harvested, and the liver, spleen, thymus and testis were weighed to calculate the organ coefficient; the colon tissue was taken, measured with a ruler for the length, and measured with a vernier caliper for the thickness, and the number and size of tumors and degree of colonic ulceration and adhesion were recorded; respective tissues were cut into small pieces and fixed, and the remaining tissues were frozen and stored; and the fixed tissues were used for HE staining and immunohistochemistry.

intestinal permeability = experiment: Determination of intestinal permeability in serum with FITC-dextran; conditions: after third stage of modeling; monotropein high and low doses, 5-ASA 100 mg/kg
Protocol: Experimental method: 90 Balb/c mice of 6-8 weeks were purchased from the Experimental Animal Center in Guangzhou University of Chinese Medicine, weighed about 18-22 g, and subjected to adaptive feeding for 10 days. Modeling was divided into three stages. In the first stage, except for the normal group of animals being given saline injection, each of the other animals were intraperitoneally injected with a carcinogen AOM (10 mg/kg), and given free access to 2% DSS water from the next day for 7 days, and then given access to replaced regular drinking water for 14 days. In the second stage, the animals were given free access to 2% DSS water for 10 days, and then given access to replaced regular drinking water for 14 days. In the third stage, the animals were given free access to 2% DSS water for 10 days, and then given access to replaced regular drinking water for 11 days. […] The diet, water drinking and body weights of the animals were recorded daily and DAI scores were made, and the animals were killed and harvested at the 10th week. […] 25 μl of serum was taken and added with 100 μl PBS, and determined on a microplate reader for its fluorescence intensity, where the wavelength of the exciting light was 480 nm, and the wavelength of the emitting light was 520 nm. A standard curve was made and the sample concentration was calculated.

IL-6, IL-10, IL-1β = experiment: Determination of cytokines in intestinal tumor tissues by Elisa; conditions: vs model group; high-dose monotropein (8 mg/kg) and positive drug 5-ASA (100 mg/kg)
Protocol: as §1, with “The first group was a blank control group (Normal), in which a total of 12 animals were given access to drinking water by gavage; the second group was a model group (AOM/DSS), in which a total of 22 animals were given access to drinking water by gavage; the third group was a positive drug control group (5-ASA+AOM/DSS), in which a total of 22 animals were given access to 100 mg/kg of mesalazine (5-ASA) by gavage; and the fourth and fifth groups were monotropein-intervening groups (Mo+AOM/DSS), which were a high dose of 8 mg/kg and a low dose of 2 mg/kg, respectively, with 17 animals in each group. Dosing was conducted daily until dissection.” left out
The intestinal tumor tissues frozen and stored at −80° C. were taken and homogenized, and the homogenate was determined with a BCA kit for the total protein concentration thereof. The homogenate was diluted by 20 times and then determined by Elisa method for cytokines: IL-6, IL-10, and IL-1β. […]

[2] = tested on: peripheral blood macrophages; experiment: Typing of peripheral blood macrophages by flow cytometry; conditions: compared with normal group
Protocol: as §1, with “The first group was a blank control group (Normal), in which a total of 12 animals were given access to drinking water by gavage; the second group was a model group (AOM/DSS), in which a total of 22 animals were given access to drinking water by gavage; the third group was a positive drug control group (5-ASA+AOM/DSS), in which a total of 22 animals were given access to 100 mg/kg of mesalazine (5-ASA) by gavage; and the fourth and fifth groups were monotropein-intervening groups (Mo+AOM/DSS), which were a high dose of 8 mg/kg and a low dose of 2 mg/kg, respectively, with 17 animals in each group.” left out, “dissection. […]” for “dissection.”

For Nc1ccc(O)c(C(=O)O)c1 [5-ASA, mesalazine, reference compound], the “spleen enlargement caused by AOM/DSS modeling (organ coefficient)” value ([1]; monotropein high (8 mg/kg) and low (2 mg/kg) doses, 5-ASA 100 mg/kg) was “has no such effect”, the “anal prolapse occurrence at the third stage of modeling” value ([1]; per group, monotropein 8 mg/kg and 2 mg/kg groups (17 animals each), 5-ASA 100 mg/kg (22 animals), gavage daily, model group 8-12) was 8-12 animals and the “intestinal permeability (FITC-dextran in serum) vs model group” value (intestinal permeability) was “not statistically significant”. The “level of IL-10 in tumor tissues” value (IL-6, IL-10, IL-1β) was “no significant differences” and the “M1/M2 ratio of peripheral blood macrophages” value [2] was “significantly reduced”.
